The target of one test is T1, human mGluR2 (Homo sapiens, UniProt Q14416).
T1 construct: expressed in transfected cells
Nature of the test: Displacement of [3H]LY341495 binding to cell membranes, human mGluR2. Particulars: read-out: Displacement of 3H-LY341495 binding (Ki, nM) (mean ± S.E., N = 3).

For a further test, the target named is T2, human mGluR3 (Homo sapiens, UniProt Q14832).
T2 construct: expressed in transfected cells
In words: Displacement of [3H]LY341495 binding to cell membranes, human mGluR3. As to conditions: read-out: Displacement of 3H-LY341495 binding (Ki, nM) (mean ± S.E., N = 3).

The test system of test [1] is fear-potentiated startle (mGlu2/3 receptor linked). Nature of the test: Rat fear-potentiated startle anxiety model. The class given is in vivo. As to conditions: for MED (1 hour pre-treatement): fed rats, oral, 1 hour pre-treatment. The source says: This model was specifically chosen, as it is highly sensitive to mGlu2/3 agonists such as LY354740 and compounds of the present invention. (See, Helton […]., Monn […]., and Kallman M. J., Anxiolytic and side-effect profile of LY354740: A potent, high selective, orally active agonist for group II metabotropic glutamate receptors, J. Pharmacol. Exp. Ther. 284: 651-660 (1998)). To verify that the actions of a compound of formula I in this model were mGlu2/3 receptor mediated, as has been shown previously for LY354740 (See, […]., Ornstein P. L., Monn J. A., and Schoepp D. D., Actions of mGlu receptor agonists on fear-conditioning versus fear-expression in rats, Neuropharmacology, 38:[…] (#144) (1999)), the ability of LY341495 (an mGlu2/3 receptor antagonist) (See, Kingston A. E., Ornstein P. L., Wright R. A., Johnson […]., Burnett […]., Wu S., and Schoepp D. […] As a positive control in each experiment, diazepam (0.6 mg/kg i.p.) was used. All experiments were performed in fed rats. In the fear potentiated startle model, animals are exposed to a neutral stimulus such as light (conditioned stimulus) with an aversive stimulus such as a shock (unconditioned stimulus). Following conditioning, when the animals are presented with a loud acoustic stimulus, larger startle responses are elicited when the startle stimulus is preceded by light. Male Long Evans rats (180-400 g) or male NIH Swiss mice (18-35 g) were obtained from Harlan Sprague-Dawley, Cumberland, Ind., USA and acclimated at least 3 days before testing. Animals were housed at 23±2° C. (relative humidity 30% to 70%) and given Purina Certified Rodent Chow and water ad libitum. The photoperiod was 12 hours of light and 12 hours of dark, with dark onset at approximately 1800 hours. Test compounds were dissolved in a vehicle of purified water and neutralized with 5 N NaOH to a pH of 7-8 when applicable. Diazepam (Sigma Chemical Company, St. […] Control animals received the respective vehicle. […]

The target in test [2] is mGlu2/3 receptors in rat forebrain membranes. Particulars: read-out: Displacement of 3H-LY341495 binding (Ki, nM) (mean ± S.E., N = 3).
Procedure: (§1) To study the ability to affect receptor binding of compounds of the present invention in comparison to LY354740, displacement of a high affinity mGluR2 antagonist radioligand [^3H]LY341495 to cell membranes from human mGluR2, human mGluR3, and native rat brain tissues was determined.

Molecules are shown by their SMILES.

T2 sequence (Q14832 23-879): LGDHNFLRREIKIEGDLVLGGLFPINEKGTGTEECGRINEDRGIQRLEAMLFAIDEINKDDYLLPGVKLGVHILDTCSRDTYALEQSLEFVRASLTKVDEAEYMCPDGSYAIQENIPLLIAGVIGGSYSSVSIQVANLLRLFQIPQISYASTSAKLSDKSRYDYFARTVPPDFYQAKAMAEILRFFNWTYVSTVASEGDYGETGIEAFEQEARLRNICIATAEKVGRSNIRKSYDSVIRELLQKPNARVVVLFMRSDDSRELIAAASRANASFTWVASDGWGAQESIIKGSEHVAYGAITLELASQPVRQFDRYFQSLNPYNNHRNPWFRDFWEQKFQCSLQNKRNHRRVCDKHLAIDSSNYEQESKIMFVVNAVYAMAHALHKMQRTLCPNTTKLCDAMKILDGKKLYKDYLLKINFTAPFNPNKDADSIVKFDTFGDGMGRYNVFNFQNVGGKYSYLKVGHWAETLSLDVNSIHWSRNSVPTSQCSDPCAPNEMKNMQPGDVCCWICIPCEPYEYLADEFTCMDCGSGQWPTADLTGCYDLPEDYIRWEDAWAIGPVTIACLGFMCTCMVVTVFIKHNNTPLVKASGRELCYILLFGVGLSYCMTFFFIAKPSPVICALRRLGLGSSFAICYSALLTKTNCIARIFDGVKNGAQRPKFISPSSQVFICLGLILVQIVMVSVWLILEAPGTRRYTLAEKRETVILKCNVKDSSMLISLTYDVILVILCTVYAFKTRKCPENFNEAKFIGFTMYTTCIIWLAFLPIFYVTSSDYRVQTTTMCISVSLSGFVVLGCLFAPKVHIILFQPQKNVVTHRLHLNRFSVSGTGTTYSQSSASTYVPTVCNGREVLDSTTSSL
T1 sequence (Q14416 19-872): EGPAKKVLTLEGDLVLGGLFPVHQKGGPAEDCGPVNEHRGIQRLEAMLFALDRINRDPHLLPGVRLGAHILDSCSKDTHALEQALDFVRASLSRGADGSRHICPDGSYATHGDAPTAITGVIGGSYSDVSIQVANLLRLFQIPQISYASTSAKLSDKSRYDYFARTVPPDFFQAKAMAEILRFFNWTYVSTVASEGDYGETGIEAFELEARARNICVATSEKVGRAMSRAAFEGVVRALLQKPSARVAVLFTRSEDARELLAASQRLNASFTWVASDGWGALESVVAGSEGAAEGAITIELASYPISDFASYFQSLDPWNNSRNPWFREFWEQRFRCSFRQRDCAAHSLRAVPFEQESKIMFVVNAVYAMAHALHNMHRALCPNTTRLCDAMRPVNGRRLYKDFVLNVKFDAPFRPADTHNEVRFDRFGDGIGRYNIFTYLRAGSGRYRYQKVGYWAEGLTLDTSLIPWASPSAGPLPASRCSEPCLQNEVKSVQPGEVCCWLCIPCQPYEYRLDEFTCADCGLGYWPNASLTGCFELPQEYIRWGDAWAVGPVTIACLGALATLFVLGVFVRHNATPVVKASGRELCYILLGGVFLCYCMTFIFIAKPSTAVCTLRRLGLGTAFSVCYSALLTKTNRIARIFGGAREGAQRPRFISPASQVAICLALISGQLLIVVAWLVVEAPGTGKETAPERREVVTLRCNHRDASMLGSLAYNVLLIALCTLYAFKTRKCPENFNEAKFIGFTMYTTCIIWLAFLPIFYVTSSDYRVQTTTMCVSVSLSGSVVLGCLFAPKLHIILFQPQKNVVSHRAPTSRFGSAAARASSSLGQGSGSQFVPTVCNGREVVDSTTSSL
Procedure for human mGluR2: as §1
Procedure for human mGluR3: as §1

In the case of `NC1(C(=O)O)CCC2C(C(=O)O)C21` (single isomer, unassigned; (+)) [LY354740, (+)-2-aminobicyclo[3.1.0]hexane-2,6-dicarboxylic acid], the inhibition constant (Ki) at human mGluR2 stood at 84.7 ± 11.1 nM; on human mGluR3 it was 126 ± 4.8 nM; in test [2], 80 ± 7.3 nM. Moreover, in test [1], the “MED (1 hour pre-treatement)” value was found to be 3.0 mg/kg p.o.
In the case of `C[C@H](N)C(=O)N[C@@]1(C(=O)O)CC[C@H]2[C@H](C(=O)O)[C@H]21.Cl` [Example 3, (1S,2S,5R,6S)-2-[(2′S)-(2′-Amino)-propionyl]amino-bicyclo[3.1.0]hexane-2,6-dicarboxylic acid hydrochloride], the “oral potency in the treatment of anxiety” value in test [1] (preclinical studies) was “greatly enhanced oral potency”.
On to `C[C@H](N)C(=O)N[C@@]1(C(=O)O)CC[C@H]2[C@H](C(=O)O)[C@H]21` [Formula I, (1S,2S,5R,6S)-2-[(2′S)-(2′-Amino)-propionyl]amino-bicyclo[3.1.0]hexane-2,6-dicarboxylic acid], for which the inhibitory constant (Ki) at human mGluR2 and at human mGluR3 was over 10000 nM each time. For the same compound, in test [1], the “MED (1 hour pre-treatement)” value is 0.01 mg/kg p.o.

Values taken from patent US20040121962A1, “Prodrugs of excitatory amino acids” (priority 2001, published 2004).
